Measurements: article PMC9599520, “The Membrane Activity of the Amphibian Temporin B Peptide Analog TB_KKG6K Sheds Light on the Mechanism That Kills Candida albicans” (mSphere, 2022)
“And” between values parts separate entries of the source, which are not always exact repeats. Identical values can stand only once. Where no end group is shown, it is not given here.

What was measured:
[1] = Vesicle leakage assay, PC-PE; assay type: biochemical; conditions: for relative change in leakage compared to PC-LUVs: P ≤ 0.05; for % Leakage: PC-PE-LUVs, 50 μM lipid, ANTS-DPX, HEPES pH 7.4, 30 min, 37°C, 1% Triton X-100 = 100%, mean ± SD, 2 experiments in duplicates
[2] = Vesicle leakage assay, PC-PS-ergosterol; assay type: biochemical; conditions: for relative change in leakage compared to PC-LUVs: P ≤ 0.05; for % Leakage: PC-PS-ergosterol-LUVs, 50 μM lipid, ANTS-DPX, HEPES pH 7.4, 30 min, 37°C, 1% Triton X-100 = 100%, mean ± SD, 2 experiments in duplicates
[3] = Vesicle leakage assay, PC; assay type: biochemical; conditions: PC-LUVs, 50 μM lipid, ANTS-DPX, HEPES pH 7.4, 30 min, 37°C, 1% Triton X-100 = 100%, mean ± SD, 2 experiments in duplicates
[4] = cited from earlier work
[5] = Vesicle leakage assay, PC-PS; assay type: biochemical; conditions: for % Leakage: PC-PS-LUVs, 50 μM lipid, ANTS-DPX, HEPES pH 7.4, 30 min, 37°C, 1% Triton X-100 = 100%, mean ± SD, 2 experiments in duplicates
[6] = Vesicle leakage assay, PC-sphingomyelin; assay type: biochemical; conditions: for relative change in leakage compared to PC-LUVs: P ≤ 0.05; for % Leakage: PC-sphingomyelin-LUVs, 50 μM lipid, ANTS-DPX, HEPES pH 7.4, 30 min, 37°C, 1% Triton X-100 = 100%, mean ± SD, 2 experiments in duplicates
[7] = tested on: mammalian cells; primary human skin cells and three-dimensional skin epidermal models; conditions: cited from earlier work
[8] = Vesicle leakage assay, PC-ceramide; assay type: biochemical; conditions: for % Leakage: PC-ceramide-LUVs, 50 μM lipid, ANTS-DPX, HEPES pH 7.4, 30 min, 37°C, 1% Triton X-100 = 100%, mean ± SD, 2 experiments in duplicates
[9] = Vesicle leakage assay, PC-PI; assay type: biochemical; conditions: for relative change in leakage compared to PC-LUVs: P ≤ 0.05; for % Leakage: PC-PI-LUVs, 50 μM lipid, ANTS-DPX, HEPES pH 7.4, 30 min, 37°C, 1% Triton X-100 = 100%, mean ± SD, 2 experiments in duplicates
[10] = Vesicle leakage assay, PC-CL; assay type: biochemical; conditions: for relative change in leakage compared to PC-LUVs: P ≤ 0.05; for % Leakage: PC-CL-LUVs, 50 μM lipid, ANTS-DPX, HEPES pH 7.4, 30 min, 37°C, 1% Triton X-100 = 100%, mean ± SD, 2 experiments in duplicates
[11] = Vesicle leakage assay, PC-ergosterol; assay type: biochemical; conditions: for relative change in leakage compared to PC-LUVs: P ≤ 0.05; for % Leakage: PC-ergosterol-LUVs, 50 μM lipid, ANTS-DPX, HEPES pH 7.4, 30 min, 37°C, 1% Triton X-100 = 100%, mean ± SD, 2 experiments in duplicates
[12] = Vesicle leakage assay, PG-PE-CL; assay type: biochemical; conditions: PG-PE-CL-LUVs, 50 μM lipid, ANTS-DPX, HEPES pH 7.4, 30 min, 37°C, 1% Triton X-100 = 100%, mean ± SD, 2 experiments in duplicates
[13] = Vesicle leakage assay, PG; assay type: biochemical; conditions: for relative change in leakage compared to PC-LUVs: P ≤ 0.05; for % Leakage: PG-LUVs, 50 μM lipid, ANTS-DPX, HEPES pH 7.4, 30 min, 37°C, 1% Triton X-100 = 100%, mean ± SD, 2 experiments in duplicates
[14] = Vesicle leakage assay, PC-PE-ergosterol; assay type: biochemical; conditions: for relative change in leakage compared to PC-LUVs: P ≤ 0.05; for % Leakage: PC-PE-ergosterol-LUVs, 50 μM lipid, ANTS-DPX, HEPES pH 7.4, 30 min, 37°C, 1% Triton X-100 = 100%, mean ± SD, 2 experiments in duplicates
[15] = tested on: C. albicans cells; experiment: Ultrastructural analysis by electron microscopy of cryo-fixed cells; conditions: 30 μM, 60 min, 30°C
[16] = tested on: C. albicans cell membrane; experiment: Membrane depolarization assay with DiSC3(5) dye; assay type: cell-based, Candida albicans

KKLLPIVKNLLKSLL-NH2 (C-terminus assumed) [TB_KKG6K]
relative change in leakage compared to PC-LUVs ([1]; 2 μM peptide): −32%
relative change in leakage compared to PC-LUVs ([1]; 4 μM peptide): −22%
relative change in leakage compared to PC-LUVs ([1]; 8 μM peptide): −19%
% Leakage ([1]; 2 μM peptide (25:1)): 22.8 ± 1.3%
% Leakage ([1]; 4 μM peptide (12:1)): 31.5 ± 2.1%
% Leakage ([1]; 8 μM peptide (6:1)): 40.0 ± 3.1%
relative change in leakage compared to PC-LUVs ([2]; 2 μM peptide): −36%
relative change in leakage compared to PC-LUVs ([2]; 4 μM peptide): −26%
% Leakage ([2]; 2 μM peptide (25:1)): 21.8 ± 3.5%
% Leakage ([2]; 4 μM peptide (12:1)): 30.1 ± 4.6%
% Leakage ([2]; 8 μM peptide (6:1)): 46.3 ± 4.2%
% Leakage ([3]; 2 μM peptide (25:1)): 33.8 ± 3.0%
% Leakage ([3]; 4 μM peptide (12:1)): 40.6 ± 3.2%
% Leakage ([3]; 8 μM peptide (6:1)): 49.2 ± 4.5%
hydrophobicity (hydrophobic amino acids) [4]: 53%
positive net charge ([4]; pH 7): +3.9
relative change in leakage compared to PC-LUVs ([5]; 2 μM peptide, P ≤ 0.05): −33%
% Leakage ([5]; 2 μM peptide (25:1)): 22.6 ± 3.3%
% Leakage ([5]; 4 μM peptide (12:1)): 38.1 ± 10.5%
% Leakage ([5]; 8 μM peptide (6:1)): 47.4 ± 15.1%
relative change in leakage compared to PC-LUVs ([6]; 2 μM peptide): −44%
relative change in leakage compared to PC-LUVs ([6]; 4 μM peptide): −34%
relative change in leakage compared to PC-LUVs ([6]; 8 μM peptide): −31%
% Leakage ([6]; 2 μM peptide (25:1)): 18.8 ± 3.1%
% Leakage ([6]; 4 μM peptide (12:1)): 26.5 ± 1.0%
% Leakage ([6]; 8 μM peptide (6:1)): 33.9 ± 2.0%
hemolysis and cytotoxicity to mammalian cells in vitro [7]: neither hemolytic nor cytotoxic
tolerance by primary human skin cells and three-dimensional skin epidermal models in vitro [7]: well tolerated
relative change in leakage compared to PC-LUVs ([8]; 2 μM peptide, P ≤ 0.05): −47%
% Leakage ([8]; 2 μM peptide (25:1)): 17.9 ± 1.8%
% Leakage ([8]; 4 μM peptide (12:1)): 39.9 ± 2.4%
% Leakage ([8]; 8 μM peptide (6:1)): 44.8 ± 1.9%
relative change in leakage compared to PC-LUVs ([9]; 4 μM peptide): +29%
relative change in leakage compared to PC-LUVs ([9]; 8 μM peptide): +15%
% Leakage ([9]; 2 μM peptide (25:1)): 37.7 ± 3.9%
% Leakage ([9]; 4 μM peptide (12:1)): 52.5 ± 2.4%
% Leakage ([9]; 8 μM peptide (6:1)): 56.5 ± 2.9%
relative change in leakage compared to PC-LUVs ([10]; 2 μM peptide): −93%
relative change in leakage compared to PC-LUVs ([10]; 4 μM peptide): −75%
relative change in leakage compared to PC-LUVs ([10]; 8 μM peptide): +20%
% Leakage ([10]; 2 μM peptide (25:1)): 2.2 ± 0.8%
% Leakage ([10]; 4 μM peptide (12:1)): 9.9 ± 0.7%
% Leakage ([10]; 8 μM peptide (6:1)): 59.0 ± 5.8%
relative change in leakage compared to PC-LUVs ([11]; 2 μM peptide): −71%
relative change in leakage compared to PC-LUVs ([11]; 4 μM peptide): −68%
relative change in leakage compared to PC-LUVs ([11]; 8 μM peptide): −66%
% Leakage ([11]; 2 μM peptide (25:1)): 9.8 ± 1.5%
% Leakage ([11]; 4 μM peptide (12:1)): 13.0 ± 0.6%
% Leakage ([11]; 8 μM peptide (6:1)): 16.9 ± 2.0%
% Leakage ([12]; 2 μM peptide (25:1)): 5.3 ± 1.3%
% Leakage ([12]; 4 μM peptide (12:1)): 40.2 ± 0.9%
% Leakage ([12]; 8 μM peptide (6:1)): 61% ± 3% and 61.5 ± 2.7%
relative change in leakage compared to PC-LUVs ([13]; 4 μM peptide): +30%
relative change in leakage compared to PC-LUVs ([13]; 8 μM peptide): +20%
% Leakage ([13]; 2 μM peptide (lipid:peptide 25:1)): 56% ± 4% and 56.0 ± 4.0%
% Leakage ([13]; 4 μM peptide (12:1)): 57.7 ± 3.9%
% Leakage ([13]; 8 μM peptide (6:1)): 61% ± 4% and 61.1 ± 4.1%
relative change in leakage compared to PC-LUVs ([14]; 2 μM peptide): −56%
relative change in leakage compared to PC-LUVs ([14]; 4 μM peptide): −58%
relative change in leakage compared to PC-LUVs ([14]; 8 μM peptide): −68%
% Leakage ([14]; 2 μM peptide (25:1)): 14.8 ± 0.8%
% Leakage ([14]; 4 μM peptide (12:1)): 17.1 ± 6.0%
% Leakage ([14]; 8 μM peptide (6:1)): 15.8 ± 1.3%
cell lysis [15]: indications of cell lysis were not observed
ultrastructural damage [15]: severe ultrastructural damage to the vast majority of cells
time to maximum DiSC3(5) fluorescence intensity ([16]; 1 μM peptide): 15 min
time to maximum DiSC3(5) fluorescence intensity ([16]; 2 μM peptide): 25 min
membrane depolarization, DiSC3(5) fluorescence intensity ([16]; 1 × 10^6 cells/mL, 30°C, 60 min, TB analog 0.5, 1, 2 μM, Triton X-100 1% (wt/vol), PCγ^C-terminal 32 μM): induced membrane depolarization in a concentration- and time-dependent manner
